From patent US20190337971A1, “PANTETHEINE DERIVATIVES FOR THE TREATMENT OF NEUROLOGIC DISORDERS” (Retrophin, Inc., priority 2016, published 2019)
Like-named read-outs stand apart in the source and are kept apart here.

What was measured:
[1] = Stability in human whole blood; format: in vitro ADME; settings: 37° C., up to 60 min
Protocol: The stability of selected compounds in human whole blood was evaluated according to the following protocol. Compounds and positive control samples were dissolved in 100% DMSO at 3 mM (stock solution). To investigate the stability of the test compounds in whole blood, a 200 μM working solution (WS) in water has been prepared by adding 66.66 μl of each 3 mM stock solution to 933.34 μl of water (6.66% DMSO content). After pre-incubation of the whole blood at 37° C. for 5 min in an eppendorf, 10.5 μl of each working solution were spiked into 689.5 μl of heated blood. The obtained 3 μM solution in blood (0.1% DMSO content) was quickly stirred and 100 μl for each time point were transferred to an eppendorf. Each compound was tested in duplicate at five time points (10, 20, 30, 40 and 60 min). At each time point, the reaction was stopped by quenching the spiked blood (100 μl) with 400 μl of 100% acetonitrile containing 0.1% formic acid. Then samples were centrifuged at 15600 rpm for 15 min at +4° C. and 200 μl of supernatant were transferred to a 96-deepwell plate. Samples were evaporated under N2 and reconstituted in H2O/ACN 0.1% formic Acid (98/2 v/v) containing the appropriate internal standard. Analysis was performed without a calibration curve by using an Acquity-UPLC (Waters) coupled to a triple quadrupole mass spectrometer (SciexAPI4000). Time point 0 was obtained by adding 3 μL of each 200 μM working solution to 997 μL of the supernatant obtaining after centrifugation (15600 rpm for 15 min at +4° C.) of the blank matrix quenched with acetonitrile containing 0.1% formic acid.
Stability was determined based on analysis of disappearance of the compounds as a function of incubation time. Quantification of test compounds was measured as a peak area relative to an internal standard. The elimination constant k and half-life (t1/2) were determined as described above in Example 7.

[2] = Permeability in a porcine brain endothelial cell model of the blood-brain barrier; format: in vitro ADME; settings: pig, luminal (apical) to basal, PBECs/As
Excerpt: Compounds disclosed herein show the potential to reach mammalian brain by crossing the blood-brain barrier (BBB) from systemic circulation. […] The porcine brain endothelial cell permeability assay is an in vitro BBB model to be used for the prediction of central nervous system (CNS) drug permeability in vivo and for ranking or prioritization of compounds according to their permeability. This system can also be used for mechanistic studies and drug delivery strategies via receptor-mediated transport (transcytosis). The system is a two-dimensional co-culture, non-contact model of two types of primary cells: primary brain endothelial cells obtained from fresh porcine brains, and primary rat astrocytes, obtained from neonatal rats (PBECs/As). This ensures barrier formation and functional expression of key transporters.
The endothelial cells were cultured on rat-tail collagen type I and human fibronectin coated Transwell polycarbonate inserts (surface area 0.7 cm^2; pore size 0.4 μm) and the inserts were placed in 24-well plates containing confluent rat astrocytes. This system allows for the formation of a differentiated BBB model suitable for compound permeability in 10 days.
On the day of the experiment, culture medium was removed and cells were pre-incubated for 30 min with HBSS containing 20 mM Hepes pH 7.4 and 0.1% BSA. Donor volume (apical) was 400 μl and receiver volume (basal) 900 μl. Compounds were diluted in assay medium (at the desired concentration) and added to the luminal side (to mimic blood to brain passage). Transport was measured usually after 60 min by detecting the amount of compound from the basal (brain side). The integrity of the cell layers was assessed by measuring the transendothelial electrical resistance (TEER) and by monitoring FITC-dextran (40 KDa) permeation. Inserts with TEER values>500 Ω/cm^2 were selected for permeability studies. […] Fluorescence was measured using a fluorimetric detector. Radioactivity was measured by scintillation counting. […] After reconstitution, samples were analyzed by LC-MS/MS. Mass balance was determined considering the amount of compound recovered in the donor and receiver chamber at the end of the assay relative to the amount added to the donor chamber at time 0.
Permeability was defined as the apparent permeability coefficient (Papp), which is a measure of the appearance rate of the compound in the receiver chamber, expressed in cm/s. Papp is calculated according the following equation: […]
To correct for the contribution of filter and substrate, Papp was also determined for the cell-free system. Permeability of the endothelial cell layer was determined using the following equation: […]

[3] = Diastereoisomer A (upfield shift in 31P NMR), read-out: t1/2 (h) Human Whole Blood Diastereoisomer A (converted)
[4] = Diastereoisomer B, read-out: t1/2 (h) Human Whole Blood Diastereoisomer B (converted)
[5] = pH 7.4, Diastereoisomer A (upfield shift in 31P NMR), read-out: Papp Diastereoisomer A
[6] = pH 7.4, Diastereoisomer B, read-out: Papp Diastereoisomer B

half-life at 3 μM [1, 3] | half-life at 3 μM [1, 4] | Papp A→B at 60 min [2, 5] | Papp A→B at 60 min [2, 6] | Compound
0.34 h | < 0.16 h | 3.1 ×10⁻⁶ cm/s | 3.6 ×10⁻⁶ cm/s | CC(=O)SCCNC(=O)CCNC(=O)[C@@H]1OP(=O)(OCOC(=O)c2cc(C)nn2C)OCC1(C)C (stereo partly drawn) [R1007, (((4R)-4-((3-((2-(acetylthio)ethyl)amino)-3-oxopropyl)carbamoyl)-5,5-dimethyl-2-oxido-1,3,2-dioxaphosphinan-2-yl)oxy)methyl 1,3-dimethyl-1H-pyrazole-5-carboxylate]
0.37 h | < 0.16 h | 3.17 ×10⁻⁶ cm/s | 3.18 ×10⁻⁶ cm/s | CC(=O)SCCNC(=O)CCNC(=O)[C@@H]1OP(=O)(OCOC(=O)c2scnc2C)OCC1(C)C (stereo partly drawn) [R1006, (((4R)-4-((3-((2-(acetylthio)ethyl)amino)-3-oxopropyl)carbamoyl)-5,5-dimethyl-2-oxido-1,3,2-dioxaphosphinan-2-yl)oxy)methyl 4-methylthiazole-5-carboxylate]
